From article PMC7083880 (Nature Communications, 2020)

Assays:
[1] = tested on: endogenous TP53 gene with UAG nonsense mutation in Caco-2 cells; experiment: p53 protein western blot, Caco-2 cells; format: cell-based, human; settings: Caco-2 (UAG); 24 h
Protocol: After 24 h of treatment, proteins were extracted from the cells and the p53 protein was assessed by western blotting (Fig. 2a). After DMSO mock treatment, as anticipated, no p53 protein was detected, because of the presence of the PTC in p53 mRNA[33].
The three leftmost lanes show twofold serial dilutions of untreated HeLa cell extract. The molecular weight is indicated to the left of each gel. b Schematic representation of the construct used to measure the function of p53. The construct carries a cDNA encoding the firefly luciferase under a promoter having two p53-responsive elements (underlined). […] The level of p21 mRNA is related to the amount of functional p53 protein synthesized in the cell. The results presented in panels b and c are representative of at least two independent experiments., p-values (p) were calculated using Student’s t-test. Source data are provided as a Source Data file. […]
The equivalent of 2.5 × 10^5 cells was subjected to 10% SDS–PAGE before transfer of the proteins to a nitrocellulose membrane. […] Antibodies were then detected with Super Signal West Femto Maximum Sensitivity Substrate (Pierce-Biotechnology, Rockford, IL, USA). Quantifications were performed with QuantityOne software (Biorad). […]

[2] = tested on: HeLa cells; experiment: Toxicity assay: adenylate kinase activity in culture medium; format: cell-based, human
Protocol: The toxicity assay was performed 24 h after starting cell treatment. The cell culture supernatant was centrifuged at 6000×g for 10 min to pellet cells and cell debris. One-twentieth of the supernatant was then used to measure adenylate kinase activity according to the supplier’s protocol (Lonza Biosciences, Basel, Switzerland).

Compound: Nc1nc(N)c2[nH]cnc2n1 [DAP, 2,6-diaminopurine]
- Synthesis of p53 protein (western blot) [1]: not in Caco-2 cells
- Adenylate kinase activity in culture medium ([2]; DAP 0.39, 24 h, average): 387040
- Adenylate kinase activity in culture medium ([2]; DAP 0.39, 24 h, experiment 1): 426825
- Adenylate kinase activity in culture medium ([2]; DAP 0.39, 24 h, experiment 2): 354564
- Adenylate kinase activity in culture medium ([2]; DAP 0.39, 24 h, experiment 3): 379730
- Adenylate kinase activity in culture medium ([2]; DAP 0.78, 24 h, average): 423131
- Adenylate kinase activity in culture medium ([2]; DAP 0.78, 24 h, experiment 1): 391755
- Adenylate kinase activity in culture medium ([2]; DAP 0.78, 24 h, experiment 2): 521708
- Adenylate kinase activity in culture medium ([2]; DAP 0.78, 24 h, experiment 3): 355930
- Adenylate kinase activity in culture medium ([2]; DAP 100, 24 h, average): 360341
- Adenylate kinase activity in culture medium ([2]; DAP 100, 24 h, experiment 1): 374460
- Adenylate kinase activity in culture medium ([2]; DAP 100, 24 h, experiment 2): 518986
- Adenylate kinase activity in culture medium ([2]; DAP 100, 24 h, experiment 3): 187576
- Adenylate kinase activity in culture medium ([2]; DAP 300, 24 h, average): 386608
- Adenylate kinase activity in culture medium ([2]; DAP 300, 24 h, experiment 1): 380370
- Adenylate kinase activity in culture medium ([2]; DAP 300, 24 h, experiment 2): 536556
- Adenylate kinase activity in culture medium ([2]; DAP 300, 24 h, experiment 3): 242898
- Adenylate kinase activity in culture medium ([2]; DAP 600, 24 h, average): 369027
- Adenylate kinase activity in culture medium ([2]; DAP 600, 24 h, experiment 1): 393840
- Adenylate kinase activity in culture medium ([2]; DAP 600, 24 h, experiment 2): 349368
- Adenylate kinase activity in culture medium ([2]; DAP 600, 24 h, experiment 3): 363874
- Adenylate kinase activity in culture medium ([2]; DAP 1200, 24 h, average): 443419
- Adenylate kinase activity in culture medium ([2]; DAP 1200, 24 h, experiment 1): 462690
- Adenylate kinase activity in culture medium ([2]; DAP 1200, 24 h, experiment 2): 487071
- Adenylate kinase activity in culture medium ([2]; DAP 1200, 24 h, experiment 3): 380497
- Adenylate kinase activity in culture medium ([2]; DAP 2400, 24 h, average): 405551
- Adenylate kinase activity in culture medium ([2]; DAP 2400, 24 h, experiment 1): 480750
- Adenylate kinase activity in culture medium ([2]; DAP 2400, 24 h, experiment 2): 416958
- Adenylate kinase activity in culture medium ([2]; DAP 2400, 24 h, experiment 3): 318945
